# Results: patent publication US8828989B2, “Oxy-cyclohexyl-4H,6H-5-oxa-2,3,10b-triaza-benzo[E]azulenes as V1A antagonists” (Hoffmann-La Roche Inc., priority 2011, dated 2014)
# Target: T1, human V1a receptor (Homo sapiens, UniProt P37288)
# T1 construct: expressed in transfected cells; host or cells: HEK293 cells, transiently transfected (membrane preparation)
# Test: human V1a receptor binding studies (3H-Vasopressin SPA, membranes of transfected HEK293 cells)
# Conditions: 3H-Vasopressin displacement, HEK293 cell membranes, Ki by Cheng-Prussoff equation; read-out: pKi hV1a (converted)
# Experimental: The human V1a receptor was cloned by RT-PCR from total human liver RNA. The coding sequence was subcloned in an expression vector after sequencing to confirm the identity of the amplified sequence. […] Cell membranes were prepared from HEK293 cells transiently transfected with the expression vector and grown in 20 liter fermenters with the following protocol.
# 50 g of cells are resuspended in 30 ml freshly prepared ice cold Lysis buffer (50 mM HEPES, 1 mM EDTA, 10 mM MgCl2 adjusted to pH=7.4+complete cocktail of protease inhibitor (Roche Diagnostics)). Homogenized with Polytron for 1 min and sonicated on ice for 2×2 minutes at 80% intensity (Vibracell sonicator). The preparation is centrifuged 20 min at 500 g at 4° C., the pellet is discarded and the supernatant centrifuged 1 hour at 43,000 g at 4° C. (19,000 rpm). The pellet is resuspended in 12.5 ml Lysis buffer+12.5 ml Sucrose 20% and homogenized using a Polytron for 1-2 min. The protein concentration is determined by the Bradford method and aliquots are stored at −80° C. until use. For binding studies 60 mg Yttrium silicate SPA beads (Amersham) are mixed with an aliquot of membrane in binding buffer (50 mM Tris, 120 mM NaCl, 5 mM KCl, 2 mM CaCl2, 10 mM MgCl2) for 15 minutes with mixing. 50 μl of bead/membrane mixture is then added to each well of a 96 well plate, followed by 50 μl of 4 nM 3H-Vasopressin (American Radiolabeled Chemicals). For total binding measurement 100 μl of binding buffer are added to the respective wells, for non-specific binding 100 μl of […] cold vasopressin and for compound testing 100 μl of a serial dilution of each compound in 2% DMSO. The plate is incubated 1 h at room temperature, centrifuged 1 min at 1000 g and counted on a Packard Top-Count. Non-specific binding counts are subtracted from each well and data is normalized to the maximum specific binding set at 100%. To calculate an IC 50 the curve is fitted using a non-linear regression model (XLfit) and the Ki is calculated using the Cheng-Prussoff equation.
# T1 sequence (P37288 whole entry): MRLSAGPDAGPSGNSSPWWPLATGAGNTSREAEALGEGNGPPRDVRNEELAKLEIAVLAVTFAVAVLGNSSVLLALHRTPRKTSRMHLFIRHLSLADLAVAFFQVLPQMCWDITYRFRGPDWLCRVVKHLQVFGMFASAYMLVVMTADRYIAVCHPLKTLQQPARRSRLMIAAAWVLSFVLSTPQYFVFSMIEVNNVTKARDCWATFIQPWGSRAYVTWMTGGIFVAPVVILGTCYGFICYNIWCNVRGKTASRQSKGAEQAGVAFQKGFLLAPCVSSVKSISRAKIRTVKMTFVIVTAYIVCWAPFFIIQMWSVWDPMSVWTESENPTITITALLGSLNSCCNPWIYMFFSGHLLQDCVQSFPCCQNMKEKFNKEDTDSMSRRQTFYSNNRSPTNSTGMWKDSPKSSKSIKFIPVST
row,SMILES,Ki
1,"CCC(C)O[C@H]1CC[C@H](c2nnc3n2-c2ccc(Cl)cc2COC3)CC1 (stereo partly drawn) [Example 2, trans-1-(4-sec-Butoxy-cyclohexyl)-8-chloro-4H,6H-5-oxa-2,3,10b-triaza-benzo[e]azulene]",4.37 nM
2,"Clc1ccc2c(c1)COCc1nnc([C@H]3CC[C@H](OC4CCCC4)CC3)n1-2 [Example 3, trans-8-Chloro-1-(4-cyclopentyloxy-cyclohexyl)-4H,6H-5-oxa-2,3,10b-triaza-benzo[e]azulene]",0.407 nM
3,"Clc1ccc2c(c1)COCc1nnc([C@H]3CC[C@H](Oc4cnccn4)CC3)n1-2 [Example 6, trans-8-Chloro-1-[4-(pyrazin-2-yloxy)-cyclohexyl]-4H,6H-5-oxa-2,3,10b-triaza-benzo[e]azulene]",26.9 nM
4,"CC(C)O[C@H]1CC[C@H](c2nnc3n2-c2ccc(Cl)cc2COC3)CC1 [Example 1, trans-8-Chloro-1-(4-isopropoxy-cyclohexyl)-4H,6H-5-oxa-2,3,10b-triaza-benzo[e]azulene]",19.1 nM
5,"Clc1ccc2c(c1)COCc1nnc([C@H]3CC[C@H](Oc4ccccn4)CC3)n1-2 [Example 5, trans-8-Chloro-1-[4-(pyridin-2-yloxy)-cyclohexyl]-4H,6H-5-oxa-2,3,10b-triaza-benzo[e]azulene]",2.34 nM
6,"Clc1ccc2c(c1)COCc1nnc([C@H]3CC[C@H](Oc4ccccc4)CC3)n1-2 [Example 4, trans-8-Chloro-1-(4-phenoxy-cyclohexyl)-4H,6H-5-oxa-2,3,10b-triaza-benzo[e]azulene]",1.32 nM
